Consider 36 compounds from article PMC6522912, “Evaluation of the published kinase inhibitor set to identify multiple inhibitors of bacterial ATP-dependent mur ligases” (Journal of Enzyme Inhibition and Medicinal Chemistry, 2019).

Each structure is given as a SMILES string. Like-named read-outs stand apart in the source and are kept apart here.

In one assay the target is E. coli MurC (Escherichia coli, UniProt P17952). Description: Malachite green inhibition assay, MurC. In kind it is biochemical. The note with it: for remaining activity at 100 µM: 0.25 h. Here is the method: (§1) Inhibition of the Mur ligases was determined using the malachite green assay, with slight modifications.
(§2) In all cases, the final concentration of DMSO was 5% (v/v). After incubation for 15 min at 37 °C, the enzyme reaction was terminated by addition of 100 µM Biomol green reagent, and the absorbance was measured at 650 nm after 5 min. All of the experiments were run in duplicate. Residual activities were calculated with respect to control assays without the tested compounds, but with the 5% DMSO carrier.
(§3) The published kinase inhibitor set compounds were evaluated for inhibition of MurC, D and F ligases from E. coli using the Malachite green assay, which detects orthophosphate generated during enzymatic reactions. To avoid non-specific inhibition due to aggregate formation, all of the compounds were tested in the presence of detergent (0.005% Triton-X114). The data are presented as the residual activities of these Mur ligases in the presence of 100 µM of each test compound (Supporting Information Table S1). […] Additionally, regarding the data of profiled compounds in large panels of human kinase assays[41]

Another assay addresses E. coli MurD (Escherichia coli, UniProt P14900). Description: biochemical. The note with it: for remaining activity at 100 µM: 0.25 h, read-out: RA [%] at 100 µM MurD. Here is the method: as §1, §2
The published kinase inhibitor set compounds were evaluated for inhibition of MurC, D and F ligases from E. coli using the Malachite green assay, which detects orthophosphate generated during enzymatic reactions. To avoid non-specific inhibition due to aggregate formation, all of the compounds were tested in the presence of detergent (0.005% Triton-X114). The data are presented as the residual activities of these Mur ligases in the presence of 100 µM of each test compound (Supporting Information Table S1).

Another assay addresses E. coli MurF (Escherichia coli, UniProt P11880). Description: biochemical. The note with it: for remaining activity at 100 µM: 0.25 h, read-out: RA [%] at 100 µM MurF. As for the experimental part:
as §1, §2, §3

The mark [1] stands for this setting: Table S1, PKIS screening, read-out: RA [%] at 100 µM MurC.
The mark [2] stands for this setting: Table S3, aza stilbene compounds.

Chain of E. coli MurF (P11880 whole entry): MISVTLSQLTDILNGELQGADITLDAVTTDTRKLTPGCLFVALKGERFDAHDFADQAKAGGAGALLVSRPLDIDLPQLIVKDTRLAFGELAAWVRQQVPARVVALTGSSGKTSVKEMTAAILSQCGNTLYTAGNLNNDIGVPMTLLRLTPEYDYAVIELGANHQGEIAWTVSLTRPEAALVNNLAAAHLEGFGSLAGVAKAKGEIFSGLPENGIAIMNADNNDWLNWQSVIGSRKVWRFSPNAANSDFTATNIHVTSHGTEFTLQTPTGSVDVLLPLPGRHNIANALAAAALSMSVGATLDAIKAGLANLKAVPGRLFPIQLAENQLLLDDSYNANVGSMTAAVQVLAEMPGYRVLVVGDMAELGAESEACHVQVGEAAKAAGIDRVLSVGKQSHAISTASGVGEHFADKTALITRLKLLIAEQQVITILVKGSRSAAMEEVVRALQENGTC
Chain of E. coli MurC (P17952 whole entry): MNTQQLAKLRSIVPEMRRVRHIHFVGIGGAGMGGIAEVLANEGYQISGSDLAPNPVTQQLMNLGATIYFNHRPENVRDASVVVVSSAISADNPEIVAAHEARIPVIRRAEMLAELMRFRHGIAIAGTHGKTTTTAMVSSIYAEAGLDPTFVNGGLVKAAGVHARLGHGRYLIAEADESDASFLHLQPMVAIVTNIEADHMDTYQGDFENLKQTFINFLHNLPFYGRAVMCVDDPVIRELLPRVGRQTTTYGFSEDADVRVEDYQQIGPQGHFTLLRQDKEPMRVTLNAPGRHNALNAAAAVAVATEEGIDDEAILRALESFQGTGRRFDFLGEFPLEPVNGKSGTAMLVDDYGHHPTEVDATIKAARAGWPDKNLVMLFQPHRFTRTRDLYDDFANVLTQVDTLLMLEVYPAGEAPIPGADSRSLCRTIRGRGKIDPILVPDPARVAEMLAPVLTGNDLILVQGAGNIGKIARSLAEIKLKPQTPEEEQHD
Chain of E. coli MurD (P14900 whole entry): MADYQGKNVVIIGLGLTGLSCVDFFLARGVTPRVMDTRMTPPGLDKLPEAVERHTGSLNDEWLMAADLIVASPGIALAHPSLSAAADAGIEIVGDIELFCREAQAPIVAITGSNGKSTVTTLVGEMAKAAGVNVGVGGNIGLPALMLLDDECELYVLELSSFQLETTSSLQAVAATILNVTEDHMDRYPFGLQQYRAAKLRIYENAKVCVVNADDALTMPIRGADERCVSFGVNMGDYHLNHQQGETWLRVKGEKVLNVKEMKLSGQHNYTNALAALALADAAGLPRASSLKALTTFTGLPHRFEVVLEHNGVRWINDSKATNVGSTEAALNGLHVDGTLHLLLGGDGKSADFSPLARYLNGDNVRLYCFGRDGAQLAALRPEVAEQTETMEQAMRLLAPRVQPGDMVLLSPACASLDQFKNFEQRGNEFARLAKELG

Turning to `COc1cc(C)c(N(C)C(=O)CN(C)C)cc1Nc1nc(Nc2cccc(F)c2C(N)=O)c2cc[nH]c2n1` [GSK2219385A], the remaining activity at 100 µM at E. coli MurC (read-out: RA [%] at 100 µM MurC, Table S1, PKIS screening) was determined as 73%; at E. coli MurD (Table S1, PKIS screening), 93%; at E. coli MurF (Table S1, PKIS screening) it was 93%.
Turning to `Fc1cccc(COc2ccc(Nc3ncnc4sc(-c5cccs5)cc34)cc2Cl)c1` [GW684626B], the remaining activity at 100 µM at E. coli MurC (setting [1]) is 59%; at E. coli MurD (Table S1, PKIS screening), 75%; on E. coli MurF (Table S1, PKIS screening), 100%.
For `NS(=O)(=O)c1ccc(NN=C2C(=O)Nc3ccc(C(=O)NCc4ccncc4)cc32)cc1` [GW300657X], in that order: 75%, 96% and 85%.
For `COc1cc(Nc2ncc(-c3ccccc3)o2)cc(OC)c1` [GW631581B] the same measures were 64%, 79% and 97%.
For `CS(=O)(=O)CCNCc1coc(-c2ccc3ncnc(Nc4ccc(OCc5ccccc5)cc4)c3c2)c1` [GW566221B], in that order: 69%, 69% and 82%.
Consider `N#Cc1cccc(Nc2nccc(-c3cnn4ncccc34)n2)c1` [GW778894X], for which the remaining activity at 100 µM at E. coli MurC (setting [1]) was found to be 66%; at E. coli MurD (Table S1, PKIS screening), 70%; at E. coli MurF (Table S1, PKIS screening), 68%.
For `COc1cc(Nc2ncc(-c3ccccc3)o2)cc(OC)c1OC` [GW627512B] the same measures were 98%, 72% and 100%.
For `NS(=O)(=O)c1ccc(N/C=C2\C(=O)Nc3ccc4ncsc4c32)cc1` [GW297361X], in that order: 107%, 76% and 86%.
For `COc1ccc2ncnc(Nc3ccc(OCc4ccccc4)cc3)c2c1` [GI261520A], in that order: 58%, 31% and 81%.
Regarding `CN(C)C(=O)O[C@H]1CN[C@H](C#Cc2cc3ncnc(Nc4ccc(OCc5cccc(F)c5)c(Cl)c4)c3s2)C1` [GSK182497A], the remaining activity at 100 µM at E. coli MurC (setting [1]) came to 43%; at E. coli MurD (Table S1, PKIS screening), 65%; on E. coli MurF (Table S1, PKIS screening), 76%.
For `CN(c1ccc(NC(=O)Nc2ccc(OC(F)(F)F)cc2)cc1)c1ccnc(Nc2cccc(S(N)(=O)=O)c2)n1` [GW806742X] the same measures were 64%, 92% and 93%.
For `Nc1ncnc2occ(-c3ccc(NC(=O)Nc4cc(C(F)(F)F)ccc4F)cc3)c12` [GW770249A] the same measures were 60%, 83% and 63%.
Regarding `NC(=O)c1cc(-c2ccncc2)cc(-c2ccccc2)c1N` [GSK625137A], the remaining activity at 100 µM at E. coli MurC (setting [1]) is 65%; on E. coli MurD (Table S1, PKIS screening), 95%; at E. coli MurF (Table S1, PKIS screening), 84%.
For `NS(=O)(=O)c1ccc(-c2ccc3c(NC(=O)C4CC4)n[nH]c3c2)cc1` [SB-738482] the same measures were 75%, 83% and 83%.
For `Nc1nc(-c2ccc(F)cc2)c(-c2ccc3ncccc3n2)s1` [GW785804X], in that order: 100%, 82% and 78%.
For `Fc1ccc(-c2cc(-c3c[nH]nc3-c3ccccn3)ccn2)cc1` [GW680975X] the same measures were 68%, 84% and 96%.
Turning to `Nc1nonc1-c1nc2cnccc2n1C1CCCCC1` [SB-734117], the remaining activity at 100 µM on E. coli MurC (setting [1]) is 100%; on E. coli MurD (Table S1, PKIS screening), 79%; on E. coli MurF (Table S1, PKIS screening) it was 93%.
For `CN(C)c1cc2c(Nc3ccc4c(cnn4Cc4ccccc4)c3)ncnc2cn1` [GW282974X], in that order: 77%, 70% and 55%.
For `NS(=O)(=O)c1cccc(N/C=C2\C(=O)Nc3ccccc32)c1` [GW275616X], in that order: 84%, 88% and 83%.
With `NC(=O)c1ccc2c(-c3ccnc(NCCCO)n3)c(-c3ccc(F)cc3)nn2c1` [GW581744X], the remaining activity at 100 µM was 73% at E. coli MurC (setting [1]); 74% on E. coli MurD (Table S1, PKIS screening); 79% at E. coli MurF (Table S1, PKIS screening).
For `O=C(NCC1CC1)c1ccc(-c2cccc(C(=O)NC3CC3)c2)cc1` [GW806776X], in that order: 84%, 95% and 78%.
For `OCCCNc1nccc(-c2c(-c3ccc(F)cc3)nn3cc(C(F)(F)F)ccc23)n1` [GW569293E] the same measures were 54%, 89% and 72%.
On to `Nc1nccc(-c2c(-c3ccc(F)cc3)nn3cc(C(F)(F)F)ccc23)n1` [GW568326X], for which the remaining activity at 100 µM on E. coli MurC (setting [1]) stood at 68%; at E. coli MurD (Table S1, PKIS screening), 90%; on E. coli MurF (Table S1, PKIS screening), 78%.
For `COC(=O)c1cncc(/C=C/c2c(C)cc(O)cc2C)c1` [GW406731X], in that order: 98%, 69% and 81%.
With `CCn1c(-c2nonc2N)nc2c(C#CC(C)(C)O)ncc(OC[C@@H]3CCCN3)c21` [GSK614526A], the remaining activity at 100 µM at E. coli MurC (setting [1]) turned out to be 65%; at E. coli MurD (Table S1, PKIS screening), 89%; at E. coli MurF (Table S1, PKIS screening) it was 100%.
For `COc1cccc(-n2ncc3c(N/N=C/c4ccc(C)cc4)ncnc32)c1` [GW829877X] the same measures were 70%, 85% and 76%.
Turning to `CN(C)CCOc1ccc(-c2nc(-c3ccncc3)c(-c3ccc4c(c3)CC/C4=N\O)[nH]2)cc1` [SB-590885-AAD], the “RA [%] at 100 µM MurC” value on E. coli MurC (Table S1, PKIS screening) is listed as 74%. The “RA [%] at 100 µM MurD” value at E. coli MurD came out at 100. For the same compound, the “RA [%] at 100 µM MurF” value on E. coli MurF (Table S1, PKIS screening) turned out to be 100%.
On to `CCc1cccc(CC)c1/C=C/c1cncc(C(=O)NC)c1` [GW450241X], for which the remaining activity at 100 µM worked out at 67% at E. coli MurC (setting [1]); 74% at E. coli MurD (Table S1, PKIS screening); 76% on E. coli MurF (Table S1, PKIS screening).
For `NC(=O)c1sc(-n2cnc3ccccc32)cc1OCc1ccccc1Br` [GSK1023156A] the same measures were 55%, 82% and 84%.
Turning to `Cc1cccc(-c2n[nH]cc2-c2ccc3ncccc3n2)n1` [GW786460X], the remaining activity at 100 µM on E. coli MurC (setting [1]) is 82%; at E. coli MurD, 76%; on E. coli MurF it was 91%.
Turning to `CCn1cc(-c2ccnc3[nH]ccc23)c(-c2cccc(NC(=O)Nc3ccc(OCc4ccccc4)cc3)c2)n1` [GSK718429A], the remaining activity at 100 µM at E. coli MurC (setting [1]) stood at 94%; on E. coli MurD (Table S1, PKIS screening) it was 83%; at E. coli MurF (Table S1, PKIS screening), 99%.
With `CNC(=O)c1cncc(C=Cc2c(Cl)cccc2Cl)c1` [Compound 10], on E. coli MurC (setting [2]), the “RA (%) MurC” value amounted to 81%. Moreover, at E. coli MurD, the “RA (%) MurD” value was 80%. The “RA (%) MurF” value on E. coli MurF (setting [2]) was 77%.
For `Fc1cccc(COc2ccc(Nc3ncncc3C#Cc3ccccc3)cc2Cl)c1` [GW651576X], the remaining activity at 100 µM at E. coli MurC (setting [1]) was found to be 44%; at E. coli MurD (Table S1, PKIS screening) it was 43%; at E. coli MurF (Table S1, PKIS screening), 91%. The IC50 at E. coli MurC (printed in the RA cell of Table S1, read-out: IC50 MurC) was determined as 120 µM; on E. coli MurD (printed in the RA cell of Table S1, read-out: IC50 MurD), 90 µM.
In the case of `COc1ccc2cc(-c3c(-c4ccncc4)nc(-c4ccc([S+](C)[O-])cc4)n3C)ccc2c1` (centres unmarked) [SB-437013], the remaining activity at 100 µM on E. coli MurC (setting [1]) was 70%; at E. coli MurD (Table S1, PKIS screening) it was 58%; on E. coli MurF (Table S1, PKIS screening) it was 70%.
Turning to `CC1(C)CC(n2cnc(-c3ccc(F)cc3)c2-c2ccnc(N)n2)CC(C)(C)N1` [SB-221466], the remaining activity at 100 µM at E. coli MurC (setting [1]) was determined as 91%; on E. coli MurD (Table S1, PKIS screening), 93%; on E. coli MurF (Table S1, PKIS screening), 100%.
For `CCS(=O)(=O)c1ccc(OC)c(Nc2ncc(-c3cccc(OC)c3)o2)c1` [GW580509X] the same measures were 100%, 82% and 93%.

The IC50 is the concentration at which inhibition is half-maximal.
